System: NCI-H1417 cells
Assay: Cell growth suppression test, CellTiter-Glo Luminescent Cell Viability Assay
Format: cell-based
Conditions: Homo sapiens, 240 h; NCI-H1417 cells treated for 10 days
Description: Cell growth suppression effects of the synthesized compounds on NCI-H1417 cells were identified. The cells were treated with the synthesized compounds for 10 days. Then, in order to test the cell growth suppression, CellTiter-Glo Luminescent Cell Viability Assay (available from Promega, USA) was used. This test is to measure emission signals proportional to the number of ATPs based on a fixed amount of ATPs, which represents the presence of metabolically active cells, thereby determining the number of viable cells. The results are expressed as a GI50 value. As for a control, GSK2879552 (available from GlaxoSmithKline USA) was used.

Row | Structure (SMILES) | GI50 [nM]
1 | N#Cc1ccc(-c2cc(C(=O)N3CCC[C@@H](N)C3)nn2-c2ccc(N3CC[C@@H](F)C3)cc2F)cc1F [Example 61, 4-(3-((R)-3-aminopiperidine-1-carbonyl)-1-(2-fluoro-4-((R)-3-fluoropyrrolidine-1-yl)phenyl)-1H-pyrazole-5-yl)-2-fluorobenzonitrile] | 82
2 | CC(C)c1ccc(-n2nc(C(=O)N3CCCC[C@@H](N)C3)cc2-c2ccc(C#N)c(F)c2)c(F)c1 [Example 39, (R)-4-(3-(3-aminoazepane-1-carbonyl)-1-(2-fluoro-4-isopropylphenyl)-1H-pyrazole-5-yl)-2-fluorobenzonitrile] | 139
3 | N#Cc1ccc(-c2cc(C(=O)N3CCC[C@@H](N)C3)nn2-c2ccc(C3CC3)cc2)cc1 [Example 1, (R)-4-(3-(3-aminopiperidine-1-carbonyl)-1-(4-cyclopropylphenyl)-1H-pyrazole-5-yl)benzonitrile] | 94
4 | N#Cc1ccc(-c2cc(C(=O)N3CCCC[C@@H](N)C3)nn2-c2ccc(N3CCCC3)cc2F)cc1F [Example 60, (R)-4-(3-(3-aminoazepane-1-carbonyl)-1-(2-fluoro-4-(pyrrolidine-1-yl)phenyl)-1H-pyrazole-5-yl)-2-fluorobenzonitrile] | 53
5 | CCO[C@H]1CCN(c2ccc(-n3nc(C(=O)N4CCC[C@@H](NC)C4)cc3-c3ccc(C#N)c(F)c3)c(F)c2)C1 [Example 71, 2-fluoro-4-(1-(2-fluoro-4-((S)-3-ethoxypyrrolidine-1-yl)phenyl)-3-((R)-3-(methylamino)piperidine-1-carbonyl)-1H-pyrazole-5-yl)benzonitrile] | 10
6 | CN[C@@H]1CCCN(C(=O)c2cc(-c3ccc(C#N)cc3)n(-c3ccc(C(C)C)cc3)n2)C1 [Example 36, (R)-4-(1-(4-isopropylphenyl)-3-(3-(methylamino)piperidine-1-carbonyl)-1H-pyrazole-5-yl) benzonitrile] | 91
7 | N#Cc1ccc(-c2cc(C(=O)N3CCC[C@@H](N)C3)nn2-c2ccc3c(c2)CCC3)cc1F [Example 88, (R)-4-(3-(3-aminopiperidine-1-carbonyl)-1-(2,3-dihydro-1H-inden-5-yl)-1H-pyrazole-5-yl)-2-fluorobenzonitrile] | 173
8 | N#Cc1ccc(-c2cc(C(=O)N3CCC[C@@H](N)C3)nn2-c2ccc(C3CC3)cc2F)cc1F [Example 5, (R)-4-(3-(3-aminopiperidine-1-carbonyl)-1-(4-cyclopropyl-2-fluorophenyl)-1H-pyrazole-5-yl)-2-fluorobenzonitrile] | 48
9 | N#Cc1ccc(-c2cc(C(=O)N3CCC[C@@H](N)C3)nn2-c2ccc(N3CCCC3)cc2Cl)cc1F [Example 75, (R)-4-(3-(3-aminopiperidine-1-carbonyl)-1-(2-chloro-4-(pyrrolidine-1-yl)phenyl)-1H-pyrazole-5-yl)-2-fluorobenzonitrile] | 52
10 | CO[C@@H]1CCN(c2ccc(-n3nc(C(=O)N4CCC[C@@H](N)C4)cc3-c3ccc(C#N)c(F)c3)c(F)c2)C1 [Example 69, 4-(3-((R)-3-aminopiperidine-1-carbonyl)-1-(2-fluoro-4-((R)-3-methoxypyrrolidine-1-yl)phenyl)-1H-pyrazole-5-yl)-2-fluorobenzonitrile] | 38
11 | N#Cc1ccc(-c2cc(C(=O)N3CCC[C@@H](N)C3)nn2-c2ccc(N3CCC(N4CCCCC4)CC3)cc2F)cc1F [Example 83, (R)-4-(1-(4-([1,4′-bipiperidine]-1′-yl)-2-fluorophenyl)-3-(3-aminopiperidine-1-carbonyl)-1H-pyrazole-5-yl)-2-fluorobenzonitrile] | 71
12 | CN[C@@H]1CCCN(C(=O)c2cc(-c3ccc(C#N)cc3)n(-c3ccc4c(c3)CCC4)n2)C1 [Example 89, (R)-4-(1-(2,3-dihydro-1H-inden-5-yl)-3-(3-(methylamino)piperidine-1-carbonyl)-1H-pyrazole-5-yl)benzonitrile] | 71
